{"source": "patent US20250302040A1", "about": "“FUNGICIDAL COMBINATIONS OF FLUAZINAM AND USES THEREOF” (priority 2022, published 2025)", "key": {"Zymoseptoria tritici": {"test_system": "Zymoseptoria tritici", "assay": "Microtiter plate (MTP) fungal growth assay, optical density, Wadley analysis", "type": "cell-based", "settings": "single active ingredient, OD 590 nm after 5 days at 19° C."}, "Phytophthora infestans": {"test_system": "Phytophthora infestans", "assay": "microbe, parasite or virus in culture", "type": "cell-based"}, "Venturia inaequalis": {"test_system": "Venturia inaequalis", "assay": "Apple scab control on apple leaves (incidence), Colby analysis", "settings": "27 days after application", "experimental": "Here, efficacy or percent inhibition is determined in %.\nEfficacy of the fungicidal compositions is evaluated with reference to a scale of 0 to 100% in comparison with untreated control plots. 0 means no control and 100 means complete control of the target disease.\nThe experiments were conducted by applying commercially available formulations of Fluazinam and other mixture partners, alone or with their tank-mixed compositions. The compositions were diluted with water.\nEach formulation with active ingredient is diluted with water and biological efficacy trials on target fungi are conducted."}, "[1]": {"settings": "Fluazinam 350 g/ha, Fluxapyroxad 75 g/ha, mixture 350 + 75 g/ha"}}, "data": [{"compound": "O=[N+]([O-])c1cc(C(F)(F)F)c(Cl)c([N+](=O)[O-])c1Nc1ncc(C(F)(F)F)cc1Cl", "note": "[Fluazinam]", "values": [{"measurement": "EC50", "setting": "Zymoseptoria tritici; Zymoseptoria tritici, 120 h, read-out: EC50 observed", "value": 0.257, "unit": "µg/mL"}, {"measurement": "EC50", "setting": "Phytophthora infestans; Phytophthora infestans, 120 h, read-out: EC50 observed", "value": 0.528, "unit": "µg/mL"}, {"measurement": "Observed % control (O)", "setting": "Venturia inaequalis; [1]", "value": 30.50, "unit": "%"}]}, {"compound": "Cn1cc(C(=O)Nc2ccccc2Oc2ccc(C(F)(F)F)cc2Cl)c(C(F)F)n1", "note": "[Flubeneteram]", "values": [{"measurement": "EC50 observed", "setting": "Zymoseptoria tritici", "value": 0.1221, "unit": "µg/mL"}]}, {"compound": "Cc1ccc(C(=O)OCc2ccc(Oc3ccccc3)cc2)c(N)n1", "note": "[Aminopyrifen]", "values": [{"measurement": "EC50 observed", "setting": "Zymoseptoria tritici", "value": 0.2220, "unit": "µg/mL"}]}, {"compound": "COc1ccnc(C(=O)N[C@@H](C)C(=O)O[C@@H](C)C(c2ccc(F)cc2)c2ccc(F)cc2)c1OC(C)=O", "note": "[Florylpicoxamid]", "values": [{"measurement": "EC50 observed", "setting": "Zymoseptoria tritici", "value": 0.0022, "unit": "µg/mL"}]}, {"compound": "Cn1nnnc1/C(=N\\OCc1cccc(NC(=O)OC(C)(C)C)n1)c1ccccc1", "note": "[Picarbutrazox]", "values": [{"measurement": "EC50 observed", "setting": "Phytophthora infestans; single active ingredient, OD 590 nm after 5 days at 19° C.", "value": 0.0026, "unit": "µg/mL"}]}, {"compound": "Cn1cc(C(=O)Nc2ccccc2-c2cc(F)c(F)c(F)c2)c(C(F)F)n1", "note": "[Fluxapyroxad]", "values": [{"measurement": "Observed % control (O)", "setting": "Venturia inaequalis; [1]", "value": 27.50, "unit": "%"}, {"measurement": "Observed % control (O)", "setting": "Venturia inaequalis; Fluxapyroxad 90 g/ha, mixture 350 + 90 g/ha", "value": 43.80, "unit": "%"}]}]}
